Patent US20110034472A1, “Novel Compounds for Treatment of Cancer and Disorders Associated With Angiogenesis Function” (UNIVERSITY OF SOUTHERN CALIFORNIA, priority 2004, published 2011)
Where two headings read alike, the source gives them in different places.

Key:
[1] = tested on: PC3 prostate cancer cells; test: MTT cytotoxicity assay, PC3; assay type: cell-based; conditions: Homo sapiens
Protocol: (§1) The sensitivity of a panel of seven human cancer cell lines to SC144 was assessed by MTT-assay. […] The sensitivity towards SC144 was time- and dose-dependent.
(§2) Cytotoxicity was assessed by a 3-(4,5-dimethylthiazol-2-yl)-2,5-diphenyltetrazolium bromide assay as previously described (Carmichael et al. (1987) Cancer Res. 47:936-42). Briefly, cells were seeded in 96-well microtiter plates (PC3 and DU145 at 5,000 cells/well and LNCaP at 10,000 cells/well; breast and ovarian cells at 4,000 cells/well) and allowed to attach. Cells were subsequently treated with a continuous exposure to the corresponding drug for 72 hours. A 3-(4,5-dimethylthiazol-2-yl)-2,5-diphenyltetrazolium bromide solution (at a final concentration of 0.5 mg/mL) was added to each well and cells were incubated for 4 hours at 37° C. After removal of the medium, DMSO was added and the absorbance was read at 570 nm. All assays were done in triplicate. The IC50 was then determined for each drug from a plot of log(drug concentration) versus percentage of cell kill.

[2] = tested on: DU145 prostate cancer cells; test: MTT cytotoxicity assay, DU145; assay type: cell-based; conditions: Homo sapiens; for IC50: DU-145, 72 hours continuous exposure, read-out: IC50 values (mean ± SD)
Protocol: as §1, §2

HEY ovarian cancer cells = test: MTT cytotoxicity assay, HEY; assay type: cell-based, human; conditions: Homo sapiens, HEY; for IC50: 72 hours continuous exposure, read-out: IC50 values (mean ± SD)
Protocol: as §1, §2

[3] = tested on: MCF-7 breast cancer cells; test: MTT cytotoxicity assay, MCF-7; assay type: cell-based, human; conditions: for CC50: MTT-assay, read-out: CC50 values (mean ± SD); for IC50: MCF7, 72 hours continuous exposure, read-out: IC50 values (mean ± SD)
Protocol: as §1, §2

[4] = tested on: MDA-MB-435 breast cancer cells; test: MTT cytotoxicity assay, MDA-MB-435; assay type: cell-based, human; conditions: Homo sapiens
Protocol: as §1, §2
(§3) Cytotoxicity was assessed by a 3-(4,5-dimethylthiazol-2-yl)-2,5-diphenyltetrazolium bromide (MTT) assay as previously described.^9 Briefly, cells were seeded in 96-well microtiter plates and allowed to attach. Cells were subsequently treated with continuous exposure to the corresponding drug for 72 h. An MTT solution (at a final concentration of 0.5 mg/mL) was added to each well, and cells were incubated for 4 h at 37° C. After removal of the medium, DMSO was added and the absorbance was read at 570 nm. All assays were done in triplicate. The IC50 was then determined for each drug from a plot of log (drug concentration) versus percentage of cells killed.

[5] = tested on: MDA-MB-468 breast cancer cells; test: MTT cytotoxicity assay, MDA-MB-468; assay type: cell-based; conditions: Homo sapiens; for IC50: 72 hours continuous exposure, read-out: IC50 values (mean ± SD)
Protocol: as §1, §2

[6] = tested on: LNCaP prostate cancer cells; test: MTT cytotoxicity assay, LNCaP; assay type: cell-based; conditions: Homo sapiens
Protocol: as §2, §3

[7] = tested on: EKVX non-small cell lung cancer cells; test: Sensitivity of various cancer cells to SC144, EKVX; assay type: cell-based; conditions: Homo sapiens
From the text: The studies were expanded to other cell lines. […] Subnanomolar to low nanomolar potency was also observed in HCT-116 and HT29 colon cancer cell lines (Table 2).

MDA-MB-435 cells = test: MTT assay, continuous drug exposure for 48 hours (Table 3); assay type: cell-based, human; conditions: for IC80: MDA-MB-435, read-out: CC80
HT29 colon cancer cells = test: MTT cytotoxicity assay, HT 29; assay type: cell-based, human; conditions: Homo sapiens, 72 h
From the text: Human breast cancer cells MDA-MB-435 and colon cancer HT29, p53 mutant were purchased from the American Type Cell Culture (Manassas, Va.). The HCT116 P53^+/+ and HCT116 P53^−/− cells were kindly provided by Dr. Bert Vogelstein (Johns Hopkins Medical Institutions, Baltimore, Md.). Human prostate cancer cells, LNCaP, were kindly provided by Richard Cote (University of Southern California Keck School of Medicine). Cells were maintained as monolayer cultures in RPMI 1640 media supplemented with 10% fetal bovine serum (Gemini-Bioproducts, Woodland, Calif.) and 2 mmol/L L-glutamine at 37° C. in a humidified atmosphere of 5% CO2. To remove the adherent cells from the flask for passaging and counting, cells were washed with PBS without calcium or magnesium, incubated with a small volume of 0.25% trypsin-EDTA solution (Sigma-Aldrich, St. Louis, Mo.) for 5-10 min, and washed with culture medium and centrifuged. All experiments were performed using cells at exponential growth stage. Cells were routinely checked for mycoplasma contamination using a PCR-based assay (Stratagene, Cambridge, UK).
as §3

CEM or HEY cells = test: Cytotoxicity of salicylhydrazides (Table 5); assay type: cell-based; conditions: Homo sapiens
From the text: Human prostate cancer cells (PC3, p53 null, AR−; DU145, p53 mutant, AR−; and LNCaP, p53 wild-type, AR+) and breast cancer cells (MCF-7, overexpressed wild-type p53, ER+; MDA-MB-468, p53 mutant, […]; and MDA-MB-435, p53 mutant, ER−) were obtained from American Type Cell Culture (Manassas, Va.). The human ovarian carcinoma cell line (HEY) naturally resistant to cisplatin (CDDP) was kindly provided by Dr. Dubeau (University of Southern California Norris Cancer Center; Buick et al. (1985) Cancer Res. 45:3668-76 and Hamaguchi et al. (1993) Cancer Res. 53:5225-32). The results with CEM cells were previously described (Neamati et al. (1998) J. Med. Chem. 41:3202-9). Cells were maintained as monolayer cultures in RPMI 1640 supplemented with 10% fetal bovine serum (Gemini-Bioproducts, Woodland, Calif.) and 2 mmol/L L-glutamine at 37° C. in a humidified atmosphere of 5% CO2. To remove the adherent cells from the flask for passaging and counting, cells were washed with PBS without calcium or magnesium, incubated with a small volume of 0.25% trypsin-EDTA solution (Sigma-Aldrich, St. Louis, Mo.) for 5 to 10 minutes, and washed with culture medium and centrifuged. All experiments were done using cells in exponential cell growth.
as §2

[8] = MTT-assay, read-out: CC50 values (mean ± SD)
[9] = PC-3, PC3 cells, read-out: IC50 value
[10] = PC3, 72 hours continuous exposure, read-out: IC50 values (mean ± SD)
[11] = 72 hours continuous exposure, read-out: IC50 values (mean ± SD)

Structure (SMILES)	IC80 (MDA-MB-435 cells; Homo sapiens) [nM]	IC50 [1, 9] [nM]	IC50 [1, 10] [nM]	IC50 [2] [nM]	IC50 (HEY ovarian cancer cells) [nM]	IC50 ([3]; Homo sapiens, MCF-7) [nM]	IC50 [4, 11] [nM]	IC50 [5] [nM]	IC50 [6, 11] [nM]	IC50 (CEM or HEY cells) [nM]	further results
O=C(NNc1nc2cc(F)ccc2n2cccc12)c1cnccn1 [SC144, Pyrazine-2-carboxylic acid N′-(7-fluoro-pyrrolo[1,2-a]quinoxalin-4-yl)-hydrazide]	10000 ± 10	–	–	–	–	–	–	–	–	–	CC50 ([1]; PC3, MTT-assay, read-out: CC50 values (mean ± SD)): 10000 ± 200 nM; CC50 ([2]; DU-145, MTT-assay, read-out: CC50 values (mean ± SD)): 3000 ± 300 nM; CC50 (HEY ovarian cancer cells; [8]): 1000 ± 60 nM; CC50 ([3]; Homo sapiens, MCF7, MCF-7): 1700 ± 300 nM; CC50 ([3]; MCF-7): 2000 ± 300 nM; IC50 ([4]; MTT, 72 h, read-out: IC50): 4000 ± 100 nM; CC50 [4, 8]: 4000 ± 1400 nM; CC50 [5, 8]: 700 ± 100 nM; IC50 ([6]; hLNCaP, MTT, 72 h, read-out: IC50): 400 ± 60 nM; CC50 [7]: 10 nM; CC50 (MDA-MB-435 cells; Homo sapiens, MDA-MB-435): 4000 ± 1400 nM; IC50 (HT29 colon cancer cells): 900 ± 60 nM
O=C(NNC(O)c1cc2ccccc2cc1O)c1cc2ccccc2cc1O (stereo not drawn) [SC23]	100 ± 10	2000 ± 500	2000	50 ± 19	2350	280 ± 35	240 ± 28	50 ± 14	850 ± 200	2300 ± 200	CC50 (MDA-MB-435 cells): 40 ± 7 nM
O=C(NNC(=O)c1ccccc1O)C1=CC2C=CC=CC2C=C1O (stereo not drawn) [SC21]	–	3200 ± 200	3250	120 ± 50	400 ± 60	40 ± 7	35 ± 7	200 ± 2	200 ± 70	400 ± 60	–
